The values that follow come from US11117888B2, “Irreversible inhibitors of pyruvate kinase M2 and the use thereof” (China Medical University, priority 2020, dated 2021).

For series [1], the system named is pyruvate kinase activity in PC-9 cells. Nature of the series: Pyruvate kinase activity assay in PC-9 cells. The class given is cell-based, human. The following applies: 0.25 μM, 6 hours, relative to vehicle control. The procedure:
Pyruvate kinase activity assays. PC-9 cells were seeded into 6 cm dishes at a concentration of 5×10^5 cells/mL. After 24 hours, cells were treated with 0.25 μM compound 1 or DMSO for 6 hours. The pyruvate kinase activity of compound 1-treated PC-9 and vehicle control cells was measured by using a commercial colorimetric assay kit from BioVision (Milpitas, Calif., USA) according to the manufacturer's protocol. In addition, to verify the specificity of compound 1 toward PKM2 versus PKM1, the inhibition of the kinase activity of recombinant PKM1 (SRP0415, Sigma-Aldrich) and recombinant PKM2 (SAE0021, Sigma-Aldrich) by compound 1 was conducted using the aforementioned assay kit.

The subject of series [2] is H1975 lung cancer cells. Nature of the series: MTT cell viability assay, H1975. It counts as cell-based. Conditions: Homo sapiens, NCI-H1975, H1975 (mutant EGFR), 24 hours. The text has this:
(§1) Cell lines, cell culture, biochemical reagents, and antibodies. MiaPaCa-2, AsPC-1, and Panc-1 human pancreatic cancer cells, MCF-7 and MDA-MB-231 breast cancer cells, SCC4 and SCC2059 oral cancer cells, PC-3 and LNCaP prostate cancer cells, H157, H460, H1975, PC-9 and H1650 lung cancer cells were obtained from the American Type Culture Collection (ATCC, Manassas, Va.). All these cells were maintained in recommended growth medium (RPMI 1640 or DMEM) supplemented with 10% fetal bovine serum (FBS) (Invitrogen, Carlsbad, Calif., USA) and antibiotics at 37° C. in a humidified incubator containing 5% CO2. For SILAC experiments, PC-9 cells were grown in SILAC DMEM medium (Thermo Fisher) supplemented with 10% dialyzed FBS and 100 μg/mL each of unlabeled L-arginine and L-lysine (light medium) or ^13C/^15N stable isotope-labeled L-arginine and L-lysine (heavy medium). […]
(§2) Cell viability assays. Drug effects on cell viability was assessed by 3-(4,5-dimethylthiazol-2-yl)-2,5-diphenyltetrazolium bromide ([…]) assays. […] The medium was then removed from each well and replaced with DMSO to dissolve the reduced MTT dye for subsequent colorimetric measurement of absorbance at 560 nm. Cell viabilities are expressed as percentages of viable cells relative to the corresponding vehicle-treated control group.

Series [3] in a line: Incubation with free cysteine, mass spectral analysis. The class given is physicochemical. The following applies: stoichiometric amount of free cysteine in solution. The text has this: In an effort to develop irreversible kinase inhibitors, we chose the core structures of several published kinase inhibitors to couple with a propiolyl moiety, which could act as an electrophilic warhead to irreversibly modify the cysteine residues of target proteins.

Series [4] deals with PC-9 lung cancer cells. Nature of the series: MTT cell viability assay, PC-9. It counts as cell-based. The following applies: Homo sapiens, PC-9 (mutant EGFR), 24 hours.
Excerpt: as §1, §2

Series [5] concerns the target PKM2 (Homo sapiens, UniProt P14618). Description: Covalent adduct formation with recombinant PKM2 (anti-compound 1 antibodies, nanoLC-MS/MS site mapping). The class given is binding. Also on record: made in house. The procedure:
As this cell-based kinase assay could not rule out the involvement of PKM1, we examined the abilities of compound 1 to inhibit the kinase activity of recombinant PKM2 (SAE0021, Sigma-Aldrich) versus recombinant PKM1 (SRP0415, Sigma-Aldrich) using a commercial PKM assay kit. […] In brief, PC-9 cells were exposed to different concentrations of compound 2 in the presence of compound 1 (1 μM) for 1 hour, lysed, and the cell lysates were treated with biotin-azide, followed by streptavidin bead pulldown under the aforementioned conditions. […] The antigen of compound 1 was prepared by coupling this small molecule with cysteine residues of ovalbumin, which was then used for immunization in guinea pigs.
Preparation of anti-compound 1 antiserum. compound 1 was coupled to the cysteine thiolate in ovalbumin (OVA) via the propiolyl moiety under alkaline conditions by using the modifications to a published method. […]
As PKM2 has a total of 10 cysteine residues (NCBI reference sequence: NM_002654), we conducted proteomic analysis to identify which cysteine residues were covalently modified by compound 1. […] In general, the modification site assignment was considered reliable if the b and y ions flanking the implicated site could be detected, with mass shifts corresponding to a compound 1-modified cysteine (+516.1773 Da). […]

Sequence of PKM2 (P14618 whole entry): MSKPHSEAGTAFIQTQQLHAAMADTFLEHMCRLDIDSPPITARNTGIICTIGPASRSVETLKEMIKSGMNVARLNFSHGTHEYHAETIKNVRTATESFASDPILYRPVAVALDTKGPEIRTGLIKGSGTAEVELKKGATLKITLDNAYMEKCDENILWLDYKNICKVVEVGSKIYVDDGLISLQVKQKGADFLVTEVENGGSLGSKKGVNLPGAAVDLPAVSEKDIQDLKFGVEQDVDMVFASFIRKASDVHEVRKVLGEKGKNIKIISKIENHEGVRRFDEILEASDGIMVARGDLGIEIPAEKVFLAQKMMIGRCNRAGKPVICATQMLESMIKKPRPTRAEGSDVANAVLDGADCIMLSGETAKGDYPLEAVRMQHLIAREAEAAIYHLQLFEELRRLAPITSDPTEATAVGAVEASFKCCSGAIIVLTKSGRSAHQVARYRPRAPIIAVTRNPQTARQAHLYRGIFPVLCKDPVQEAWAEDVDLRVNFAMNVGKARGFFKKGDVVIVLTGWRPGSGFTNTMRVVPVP

`C#CC(=O)Nc1ccc(-n2nc(CCC(=O)NC)cc2-c2ccc(-c3ccc(C(F)(F)F)cc3)cc2)cc1` [compound 1, N-(4-(3-(3-(Methylamino)-3-oxopropyl)-5-(4′-(trifluoromethyl)-[1,1′-biphenyl]-4-yl)-1H-pyrazol-1-yl)phenyl)propiolamide]: the “pyruvate kinase activity in cells” value in series [1] was “significantly reduced pyruvate kinase activity”. Moreover, the concentration for half-maximal inhibition (IC50) amounted to 1 µM in series [2] and 0.5 µM in series [4]. In series [3], the “adduct formation with free cysteine” value is “formation of a covalent 1-cysteine adduct”. Further, the “covalent adduct with recombinant PKM2 (anti-compound 1 antibodies)” value in series [5] (Western blot, 4° C. for 6 hours) is reported as “antibodies cross reacted with compound 1-treated PKM2”. In addition, the “cysteine residues of PKM2 covalently modified” value in series [5] (tryptic digestion, nanoLC-MS/MS) was “covalently coupled to the two cysteine residues Cys317 and Cys326”.
